From patent publication US7989466B2, “Methods to inhibit or augment an inflammatory response” (Cambridge Enterprise Limited, priority 1999, dated 2011)
Positions of bridges follow the written chain, without caps; N, C: chain ends. Non-standard residues stand in square brackets, D forms with d. Residues, ends and D or L forms follow the SMILES beside them.

What was measured:
[1] = system: chemokine induced calcium flux; assay: Intracellular calcium flux in THP-1 cells (Fura2); type: cell-based, human
Protocol: CRD-Leu4Ile11Cys13 peptide 3(3-12)[MCP-1] at 6.7 μg/ml was incubated with THP-1 cells (2×10^6 cells/ml) for 25 minutes prior to exposure to agonist (10 ng/ml) and measurement of flux. The second exposure to agonist is 2 minutes later. Fluorescence is measured at 510 nm.
Monocytes, eosinophils, neutrophils and lymphocytes loaded with Fura-2 (0.1 nmol/10^5 cells) are stimulated with a chemokine in the presence or absence of the therapeutic agent, and [Ca^2+]i-related fluorescence changes are recorded (Von Tschanner et al., Nature, 324, 369 (1986)). […] The Fura-2 fluorescence of the monocyte suspension is measured at 37° C. in a single excitation, single emission (500 nm) wavelength Perkin-Elmer LS5 fluorometer. [Ca^2+]i is calculated from changes in fluorescence measured at a single excitation wavelength of 340 nm.
After peptide 3 binds to its receptor, it may block proteins required to effect the response (e.g., block specific integrins needed for chemokine-induced migration but not fNLP or TGFb induced migration), down regulate a chemokine receptor, or interfere with signal transduction mechanisms. Interference with signal transduction mechanisms can be detected in either a direct or indirect manner (for example, using assays for measuring intracellular calcium flux, cAMP, pI3, kinase activity, and DAG).

[2] = in vivo; details: female, Sprague-Dawley, rat, iv, 8.8 mg; for dose excreted: rats, 8.8 mg i.v.
[3] = molecular target: recombinant human chemokine receptors (CCR1-5, CXCR4, CXCR1, CXCR2); assay: Binding of biotin-labeled peptides to chemokine receptor expressing HOS/CHO lines; details: no evidence for any binding; read-out: affinity of any binding to recombinant human chemokine receptors
Protocol: Iodinated-RANTES and iodinated-MCP-1 (Amersham) were reconstituted in MilliQ water to a concentration of 50 nM (0.1 μCi/μl) with a specific activity of 2000 Ci/mmole. Iodinated-streptavidin was obtained (Amersham) at a stock concentration of 47 nM (0.1 μCi/μl) and a specific activity of 38 μCi/μg (55,000 Da). Cold RANTES and MCP-1 were purchased from R&D Systems (Minneapolis, Minn.), reconstituted in sterile PBS+1 mg/ml fatty acid free BSA (FAF-BSA) (Sigma A-6003) at 10 μg/ml ([…]). Cold streptavidin (Calbiochem) was reconstituted in sterile MilliQ to a concentration of 4 mg/ml (90 μM).
FAF-BSA was used throughout. All experiments were performed in binding medium (50 mM HEPES, 1 mM CaCl2, 1 mM MgCl2, 0.5% FAF-BSA pH 7.5) as described by Ruffing et al. (Cell. Immunol., 189, 160 (1998)) unless stated otherwise. Reactions were all performed at 4° C. and all buffers were pre-cooled to 4° C. unless stated otherwise.
The biotinylated peptide was synthesized as an N-terminal biotin conjugate of the sequence n′-[…]-c′ (SEQ ID NO:152; Affiniti Research) and confirmed as >90% pure by HPLC. […]
The binding of labeled peptide 2 and labeled peptide 3 to the parental HOS, parental CHO and 8 chemokine receptor expressing lines was compared. […] The amount of streptavidin molecules added was calculated in each case to be approximately 50-fold in excess over the number of chemokine receptor sites. […]

CC[C@@H](C)[C@H]1NC(=O)[C@@H](CCC(N)=O)NC(=O)[C@H](N)CSSC[C@H](C(N)=O)NC(=O)[C@@H](CC(C)C)NC(=O)[C@@H](CC(=O)O)NC(=O)[C@H]2CCCN2C(=O)[C@@H](CCCCN)NC(=O)[C@@H](CCC(N)=O)NC(=O)[C@@H](CCCCN)NC(=O)[C@@H](Cc2c[nH]c3ccccc23)NC1=O (H-[dC][dQ][dI][dW][dK][dQ][dK][dP][dD][dL][dC]-NH2; disulfide 1-11; N-terminus assumed)
effect on MCP-1 induced calcium flux [1]: did not block | effect on SDF-1 induced calcium flux [1]: did block | half-life [2]: ~10 min | dose excreted ([2]; administered dose recovered in urine over 24 hours): ~70% | dose excreted ([2]; dose excreted in urine over the first two hours): > 55%

EICADPKQKWVQ [peptide 3(1-12)[MCP-1]]
Kd [3]: > 10 µM
